# Target: Potassium voltage-gated channel subfamily A member 3 (Homo sapiens, UniProt P22001)
# Test: Inhibition of Kv1.3 expressed in mouse L929 cells exposed to depolarizing step pulses from -80 mV to +40 mV by whole cell patch clamp method
# Assay type: cell-based
# Conditions: not given
# Chain of Potassium voltage-gated channel subfamily A member 3 (P22001 whole entry): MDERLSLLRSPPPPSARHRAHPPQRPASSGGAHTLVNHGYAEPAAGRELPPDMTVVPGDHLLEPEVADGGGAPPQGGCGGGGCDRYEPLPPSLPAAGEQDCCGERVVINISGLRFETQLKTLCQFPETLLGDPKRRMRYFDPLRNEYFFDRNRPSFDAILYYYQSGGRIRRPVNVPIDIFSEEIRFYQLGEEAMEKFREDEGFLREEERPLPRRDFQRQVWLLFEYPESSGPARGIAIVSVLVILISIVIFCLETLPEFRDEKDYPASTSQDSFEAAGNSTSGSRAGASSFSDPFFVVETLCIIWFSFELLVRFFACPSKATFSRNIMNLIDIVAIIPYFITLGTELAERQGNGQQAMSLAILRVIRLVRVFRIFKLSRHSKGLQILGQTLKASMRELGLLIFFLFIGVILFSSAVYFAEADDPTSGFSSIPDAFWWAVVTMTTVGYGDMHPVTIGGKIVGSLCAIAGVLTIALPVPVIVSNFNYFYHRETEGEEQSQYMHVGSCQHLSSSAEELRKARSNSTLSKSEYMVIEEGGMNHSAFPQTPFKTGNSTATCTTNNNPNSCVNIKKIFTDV
row,Compound,IC50
1,COC(=O)C1(c2ccccc2)CCN(CCC(C#N)(c2ccccc2)c2ccccc2)CC1,2.52 µM
2,N#CC(CCN1CCC(c2ccccc2)CC1)(c1ccccc1)c1ccccc1,2.61 µM
3,CCOC(=O)C1CCN(CCC(C#N)(c2ccccc2)c2ccccc2)CC1,230 µM
4,CCOC(=O)C1(c2ccccc2)CCN(CCC(c2ccccc2)c2ccccc2)CC1,0.9 µM
5,N#CC(CCN1CCCCC1)(c1ccccc1)c1ccccc1,20.5 µM
6,CCOC(=O)C1(c2ccccc2)CCN(CCCc2ccccc2)CC1,0.8 µM
7,N#CC(CCN1CCN(c2ccccc2)CC1)(c1ccccc1)c1ccccc1,1.86 µM
8,N#CC(CCN1CCN(Cc2ccccc2)CC1)(c1ccccc1)c1ccccc1,1.27 µM
9,N#CC(CCN1CC=C(c2ccccc2)CC1)(c1ccccc1)c1ccccc1,4.2 µM
10,N#CC(CCN1CCC(O)(c2ccccc2)CC1)(c1ccccc1)c1ccccc1,1.7 µM
11,N#CC(CCN1CCC(O)CC1)(c1ccccc1)c1ccccc1,0.75 µM
12,N#CC(CCN1CCCC(O)C1)(c1ccccc1)c1ccccc1 (stereo not given),> 100 µM
13,OC1CCN(CCC(c2ccccc2)c2ccccc2)CC1,75 µM
14,OC1CCN(CCCc2ccccc2)CC1,> 100 µM
15,CC1CCN(CCC(C#N)(c2ccccc2)c2ccccc2)CC1,5.8 µM
16,COC1CCN(CCC(C#N)(c2ccccc2)c2ccccc2)CC1,> 100 µM
17,N#CC(CCN1CCC(N)CC1)(c1ccccc1)c1ccccc1,> 100 µM
18,CC(C)(C)OC(=O)NC1CCN(CCC(C#N)(c2ccccc2)c2ccccc2)CC1,25 µM
19,CCOC(=O)C1(c2ccccc2)CCN(CCC(C#N)(c2ccccc2)c2ccccc2)CC1 [DIPHENOXYLATE],5 µM

# Test system: not listed separately
# Test: Lipophilicity, logP of the compound
# Assay type: physicochemical
# Conditions: octanol/water
row,Compound,logP
1,O=c1ccc2c(OCCCCOc3ccccc3)c3ccoc3cc2o1,4.03

# — ChEMBL document CHEMBL2203233, “Structure-activity relationship exploration of Kv1.3 blockers based on diphenoxylate” (Bioorg Med Chem Lett, 2012)
